From US20250276127A1, “THERAPEUTIC METHODS AND DEVICES” (NORWEGIAN UNIVERSITY OF SCIENCE AND TECHNOLOGY (NTNU), priority 2021, published 2025)

Legend:
Type in all cases: in vivo, human
[1] = test system: blood flow in the skin; assay: Local skin blood flow by laser Doppler after subcutaneous injection
Description: Likewise, the compound with glucagon activity may be administered in an amount which is effective to achieve a local vasodilatory effect, or an effect of increasing local blood flow at the site of its administration. Vasodilatory activity may be assessed, or determined, by measuring blood flow by a laser Doppler method, at an administration site on or in a human or non-human animal subject after administration of the compound. For example, the compound may be injected SC and blood flow just below the skin surface may be determined at the injection site. Such a method is described in Example 1. However, for the methods and uses herein where the compound is used for its effect in the delivery of a therapeutically active agent (e.g. insulin) or in conjunction with the operation of a sensor (e.g. glucose sensor), it is not necessary, and indeed it may be undesirable, for the compound to exert its usual therapeutic effect of increasing blood glucose, or counteracting an episode of hypoglycaemia. The amount, or dose, administered may thus be less, and indeed typically will be less, than a dose which is administered, or typically used, to treat hypoglycaemia. Doses for the compound are discussed in more detail below.
An experiment was performed on 2 young healthy adult human volunteers. The effect of subcutaneous (hereinafter, SC) injections on blood flow in the skin were tested 6 times in the 2 subjects (4 tests in a subject and 2 tests in a subject). The glucagon was administered by SC injection of 0.1 ml of 1 mg/ml glucagon (i.e. an injection containing 0.1 mg of glucagon) to sites on the lateral side of both upper arms of the subjects. Blood flow was measured on the skin surface at the site of administration by laser Doppler technology. As a control the same volume of physiological saline (0.9%) was injected as a placebo at the same sites.
This effect was further investigated in a similar experiment with varying doses of glucagon. Again, the same 2 subjects were used, and SC injections of glucagon or placebo were given 6 times (4 tests in a subject and 2 tests in a subject). The glucagon was administered to sites on the lateral sides of both upper arms in amounts of 0.1 mg, 0.015 mg and 0.01 mg (0.1 ml of glucagon at concentrations of 0.1 mg/ml, 0.015 mg/ml and 0.01 mg/ml, respectively). Blood flow was measured on the skin surface at the site of administration by laser Doppler technology. As a control the same volume of physiological saline (0.9%) was injected as a placebo at the same sites.
Further experiments were conducted to investigate the effect on local blood flow of subcutaneous injections of glucagon in the abdomen. Again, 2 subjects were used, and SC injections of glucagon or placebo were given 6 times (3 tests in a subject and 3 tests in a subject). The glucagon was administered by SC injection of 0.1 ml of 1 mg/ml glucagon (i.e. an injection containing 0.1 mg of glucagon) to sites on both sides of the abdomen of the subjects. Blood flow was measured on the skin surface at the site of administration by laser Doppler technology. As a control the same volume of physiological saline (0.9%) was injected as a placebo at the same sites.
This effect was further investigated in a similar experiment with varying doses of glucagon. Again, 2 subjects were used, and SC injections of glucagon or placebo were given 6 times (3 tests in a subject and 3 tests in a subject). The glucagon was administered to sites on both sides of the abdomen in amounts of 0.1 mg, 0.05 mg and 0.015 mg (0.1 ml of glucagon at concentrations of 0.1 mg/ml, 0.05 mg/ml and 0.015 mg/ml, respectively). Blood flow was measured on the skin surface at the site of administration by laser Doppler technology. As a control the same volume of physiological saline (0.9%) was injected as a placebo at the same sites. […]

[2] = test system: glucose levels detected by CGM; assay: CGM (Dexcom G6) glucose sensing at meals with injection at the sensor site; settings: FIG. 26
Experimental: This effect was further investigated in a similar experiment to investigate the effect of glucagon on the performance of CGMs. Again, 2 subjects were used showing data from 12 meals in a non-diabetic […] and 11 meals in a non-diabetic […] collected with Dexcom G6 CGMs. The subjects wore two CGMs placed symmetrically on the lateral side of each overarm. 1-3 minutes before the start of ingesting the meal 0.1 ml of glucagon (1 mg/ml) was injected at the site of one CGM and 0.1 ml of placebo (saline (0.9%) on the contralateral site of CGM. Before each meal, the site of glucagon delivery was decided by a new randomization.

[3] = test system: local blood flow; assay: Impact of injection technique (speed) on local blood flow, laser Doppler; settings: abdomen
Experimental: To observe the impact of injection technique, and particularly speed of injection, on the effect induced by subcutaneous injection of glucagon, an experiment was conducted to compare 2 different injection techniques; one where the injection lasted 1-3 seconds (technique 1), and one where the injection lasted at least 10 seconds (technique 2). 6 injections were given with technique 1 and 4 injections were given with technique 2. In each case, 0.1 mg of glucagon (in a 0.1 ml injection) was injected subcutaneously into the abdomen of the subjects. For each technique, half of the injections were given to a subject and half to a subject. Blood flow was measured on the skin surface at the site of administration by laser Doppler technology.
In addition, in FIG. 21 the same results are shown together with the results of placebo injections of 0.1 ml of 0.9% saline using the same 2 techniques. For technique 1, 6 placebo injections were given, and for technique 2, 2 placebo injections were given. Again, half of the injections with each technique were done in a subject, and half were done in a subject.

[4] = test system: local blood flow; assay: Impact of laser Doppler probe placement on measured local blood flow; settings: 0.015 mg SC, upper arms
Experimental: The impact of the placement of the laser Doppler probe on the measured effect of glucagon injections on local blood flow was investigated by giving injections at multiple sites with varying distances from the probe. The experiment involved the subcutaneous injection of 0.015 mg of glucagon (in 0.1 ml) or 0.1 ml of 0.9% saline as a control at sites on the lateral sides of the upper arms of the subjects. The injections were given either under the probe, 1.6 cm from the probe centre, 3 cm from the probe centre, or 5 cm from the probe centre. In each case, 6 injections were given, except for 1.6 cm from the probe centre where only 4 saline injections were given. In all cases, half of the injections were given to a subject and half to a subject, except for under the probe, where 4 tests were done on the subject and 2 on the subject. Blood flow was measured on the skin surface by laser Doppler technology.

For glucagon, the “increase in local blood flow relative to higher doses” value ([1]; 0.01 mg SC, lateral upper arms, FIG. 15) was “similar, although less pronounced”, the “effect on local blood flow relative to control injection” value ([1]; 0.01 mg SC, thighs, FIG. 23/24) was “did not appear to have a significant effect on local blood flow” and the “effect on local blood flow relative to control injection” value ([1]; 0.015 mg SC, abdomen, FIG. 18/19) was “did not appear to have a significant effect on local blood flow”. The “increase in local blood flow” value ([1]; 0.015 mg SC, lateral upper arms, average of 6 tests, FIG. 15) was 400-450 % of the baseline reading, the “increase in local blood flow among doses” value ([1]; 0.03 mg SC, thighs, FIG. 23/24) was “biggest increase in local blood flow” and the “initial increase in local blood flow” value ([1]; 0.05 mg SC, abdomen, FIG. 18/19) was “did not result in a significant increase in local blood flow initially”. For the same substance, the “local blood flow versus control injection after 15 minutes” value ([1]; 0.05 mg SC, abdomen, after 15 minutes) was “higher than that observed at the same time after the control injection”, the “persistence of increase in local blood flow versus control” value ([1]; 0.05 mg SC, thighs, FIG. 22) was “more persistent than that observed following administration of the control” and the “time after which blood flow values of glucagon and placebo were approximately equal” value ([1]; 0.05 mg SC, thighs, FIG. 22) was “around 30 minutes”. For the same substance, the “increase in local blood flow versus saline control” value ([1]; 0.05 mg SC, thighs, FIG. 23/24) was “slightly larger than that observed following administration of the saline control”, the “persistence of increase in local blood flow versus saline control” value ([1]; 0.05 mg SC, thighs, FIG. 23/24) was “significantly more persistent” and the “increase in local blood flow versus saline” value ([1]; 0.05 mg SC, thighs, average of 7 tests, FIG. 22) was “slightly greater than that observed when saline was administered”. The “persistence of increase in local blood flow versus control” value ([1]; 0.1 mg SC, abdomen, FIG. 17) was “more persistent than that observed following administration of the control”, the “time after which blood flow values of glucagon and placebo were approximately equal” value ([1]; 0.1 mg SC, abdomen, FIG. 17) was “around 30 minutes” and the “initial increase in local blood flow versus control” value ([1]; 0.1 mg SC, abdomen, FIG. 18/19) was “greater than that seen following the administration of the same control”. For the same substance, the “increase in local blood flow versus saline” value ([1]; 0.1 mg SC, abdomen, average of 6 tests, FIG. 17) was “slightly greater than that observed when saline was administered”, the “blood flow after returning to "normal" versus before injection” value ([1]; 0.1 mg SC, lateral upper arms, FIG. 14) was “increased compared to before the glucagon injection” and the “effect on local blood flow (flow increase)” value ([1]; 0.1 mg SC, lateral upper arms, average of 6 tests, FIG. 14) was “several hundred percent”. The “increase in local blood flow” value ([1]; 0.1 mg SC, lateral upper arms, average of 6 tests, FIG. 15) was 400-450 % of the baseline reading, the “period over which the vasodilatory effect can be seen” value ([1]; SC, upper arms, FIG. 15) was 35 to 40 min and the “increase of blood flow at the site of administration” value ([1]; administered sub-cutaneously, small blood vessels in the skin (summary statement)) was “several hundred percent”. The “persistence of increase in blood flow” value ([1]; all doses (0.1, 0.015, 0.01 mg) SC, upper arms, not seen with placebo) was “found to persist even once the value had stabilised”, the “dose at which a vasodilatory effect has been observed” value ([1]; in certain body regions, in some subjects) was < 0.01 mg and the “change in local blood flow on administration” value ([1]; summary of the Examples) was “immediate and large increase in local blood flow”. For the same substance, the “level to which blood flow returns” value ([1]; summary of the Examples, maintained over a prolonged period) was “higher than the baseline level before glucagon administration”, the “glucose levels detected by CGM after meal versus placebo site” value ([2]; 0.1 ml of 1 mg/ml injected at CGM site 1-3 minutes before meal, overarm, 23 meals) was “faster and larger increase in glucose levels detected compared to placebo” and the “time at which the effect on CGM glucose can be clearly seen” value ([2]; in one of the subjects) was 10 min. For the same substance, the “persistence of effect of the "slow" injection on local blood flow” value ([3]; 0.1 mg SC, technique 2, versus fast glucagon and placebo injections) was “more persistent than the effects of any of the other injections”, the “increase in local blood flow, technique 2 (injection at least 10 seconds) versus technique 1 (1-3 seconds)” value ([3]; 0.1 mg in 0.1 ml SC, FIG. 20/21) was “significantly larger increase in local blood flow” and the “effect on blood flow versus placebo” value ([4]; injection 1.6 cm or 3 cm from probe centre) was “larger than placebo”. For the same substance, the “effect on blood flow versus placebo” value ([4]; injection 5 cm from probe centre) was “except for injection 5 cm from the probe the effect was larger than placebo”, the “increase in local blood flow, placebo subtracted” value ([4]; injection at greater distances (1.6, 3 or 5 cm from probe centre)) was “less significant” and the “increase in local blood flow, placebo subtracted” value ([4]; injection directly under the probe, FIG. 25) was “largest increase in local blood flow”.
